Key:
[1] = tested on: lungs of mice after whole thoracic radiation (WTI); test: Proinflammatory chemokine mRNA expression in lungs after whole thoracic radiation (WTI) 16 Gy; assay type: in vivo, C57BL/6 male mice; details: 2 weeks post-WTI 16 Gy; 0.3 mg/kg subcutaneously 1 day prior to WTI; p<0.05
Experimental: Lung data is presented as fold change of chemokine expression normalized to Hprt1 expression (n=5 for Naïve, n=5 for Vehicle (phosphate buffered saline) and TPOm pretreatment). Expression in the naive group is designated as 1 for comparison. Data are shown as means±SE. *P<0.05 vs. vehicle treated mice.
(§1) Methods: C57BL/6 male mice (9-12 weeks old) were administered with the TPOm RWJ-800088 (0.3 mg/kg) or PBS (vehicle) subcutaneously 1 day prior to whole thoracic radiation (WTI) at 16 Gy delivered by x-ray. Mice were sacrificed at 2 weeks and 7 months (n=5/time point/group) post-WTI to collect the lung tissues for various analysis. Groups of mice (n=10/group) exposed to 18 Gy WTI were also subjected to an 8-month survival study.

[2] = tested on: lungs of mice after whole thoracic radiation (WTI); test: H&E staining of lung sections for cellularity and immune infiltration post-WTI; assay type: in vivo, C57BL/6 male mice; details: 2 weeks post-WTI 16 Gy; 0.3 mg/kg subcutaneously 1 day prior to WTI
Experimental: (§2) FIGS. 2A-2B show the effect of TPOm-pretreatment (1 day before irradiation at 0.3 mg/kg body weight by subcutaneous injection) on immune cell infiltration and permeability in the lungs of mice at 14 days post-WTI. […] 200× total magnification.
as §1

[3] = tested on: lungs of mice after whole thoracic radiation (WTI); test: Protein in bronchoalveolar lavage by bicinchoninic acid assay (BCA) post-WTI; assay type: in vivo, C57BL/6 male mice; details: 2 weeks post-WTI 16 Gy; 0.3 mg/kg subcutaneously 1 day prior to WTI; p<0.05
Experimental: as §2, §1

[4] = tested on: lungs of mice after whole thoracic radiation (WTI); test: Collagen deposition in lungs by Trichrome Blue staining post-WTI; assay type: in vivo, C57BL/6 male mice; details: 7 months post-WTI 16 Gy; 0.3 mg/kg subcutaneously 1 day prior to WTI; p<0.05
Experimental: FIGS. 3A-3B show the effect of TPOm-pretreatment (1 day before irradiation at 0.3 mg/kg body weight by subcutaneous injection) on collagen deposition in lungs of mice at 7 months post-WTI. […] 200× total magnification.
as §1

[5] = tested on: lungs of mice after whole thoracic radiation (WTI); test: Pulmonary density by microCT post-WTI; assay type: in vivo, C57BL/6 male mice; details: 7 months post-WTI 16 Gy; 0.3 mg/kg subcutaneously 1 day prior to WTI; p<0.05
Experimental: FIGS. 5A-5C show the effect of TPOm-pretreatment (1 day before irradiation at 0.3 mg/kg body weight by subcutaneous injection) on pulmonary density of mice at 7 months post-WTI. Pulmonary density imaged by microCT and measured by microCT analysis software. […] (n=3 for Naïve, n=5 for vehicle and n=4 for TPOm pretreatment). *P <0.05 vs. vehicle treated mice.
as §1

[6] = tested on: lungs of mice after whole thoracic radiation (WTI); test: Senescence marker mRNA expression in lungs (qPCR) post-WTI; assay type: in vivo, C57BL/6 male mice; details: 7 months post-WTI 16 Gy; 0.3 mg/kg subcutaneously 1 day prior to WTI; p<0.05
Experimental: FIGS. 4A-4C show the effect of TPOm-pretreatment (1 day before irradiation at 0.3 mg/kg body weight by subcutaneous injection) on senescence gene mRNA and protein expression in lungs of mice at 7 months post-WTI. mRNA and protein levels assessed by qPCR and western blot, respectively. […] Data are shown as means±SE. *P <0.05 vs. vehicle treated mice. […] Expression in the naive group is designated as 1 for comparison.
as §1

[7] = tested on: mice exposed to 18 Gy WTI; test: 8-month survival study after 18 Gy WTI; assay type: in vivo, C57BL/6 male mice
Experimental: Mice were given a vehicle or TPOm injection (1 mg/kg), 1 day before irradiation (1×) or 1 day before irradiation and 7 days after radiation (2×) (n=10 for irradiated groups, n=5 for naïve). *P<0.05 vs. vehicle treated mice.
as §1

[8] = tested on: lungs of mice after whole thoracic radiation (WTI); test: KC protein in whole lung lysate by ELISA post-WTI; assay type: in vivo; details: post-WTI 16 Gy; 0.3 mg/kg subcutaneously 1 day before irradiation; FIG. 7A
Experimental: (§3) FIGS. 7A-C show TPOm-pretreatment (1 day before irradiation at 0.3 mg/kg body weight by subcutaneous injection) on neutrophil infiltration of mice measured at 7 months post-WTI. […] 400× total magnification. […] Data are shown as means±SE. *P<0.05, ***P<0.0001.
as §1
Methods: Mice were treated as described in Example 1. Whole lung lysate was prepared from left lung tissue at the time of harvest. KC ELISA kit (R&D Systems, #DY453) was used according to manufacturer's instructions. For each sample, 2 replicates were measured for KC protein.

[9] = tested on: lungs of mice after whole thoracic radiation (WTI); test: Myeloperoxidase (MPO) staining of lung sections for neutrophil infiltration post-WTI; assay type: in vivo; details: post-WTI 16 Gy; 0.3 mg/kg subcutaneously 1 day before irradiation; FIG. 7C
Experimental: as §3, §1
At the time of harvest, the right lung was fixed with 10% formalin, then embedded and sectioned at […]. Anti-myeloperoxidase (MPO) antibody was obtained from Abcam (Cambridge, MA, USA). Immunoreactivity was visualized by ImmPACT histochemistry (Vector Labs, Burlingame, CA, USA) with hematoxylin counter staining. For quantitation of MPO+ cells in lung tissue, images were analyzed with ImageJ software (National Institutes of Health); stained cells were counted using the “analyze particles” module to assess positive staining. Data were quantified from 3 fields of 1 section per animal, and 5 animals per group.

Question: How did the “mRNA expression of proinflammatory chemokine KC in lungs, lower than vehicle” value [1] turn out when “methoxypolyethyleneglycol20000-propionyl-L-Isoleucyl-L-Glutamyl-Glycyl-L-Prolyl-L-Threonyl-L-Leucyl-L-Arginyl-L-Glutaminyl-L-2-Naphthylalanyl-L-Leucyl-L-Alanyl-L-Alanyl-L-Arginyl-Sarcosyl-Ne-(methoxypolyethyleneglycol20000-propionyl-L-Isoleucyl-L-Glutamyl-Glycyl-L-Prolyl-L-Threonyl-L-Leucyl-L-Arginyl-L-Glutaminyl-L-2-Naphthylalanyl-L-Leucyl-L-Alanyl-L-Alanyl-L-Arginyl-Sarcosyl-)-Lysinamide [TPOm]” was run?
Answer: The value was 37%.

Question: And the “mRNA expression of proinflammatory chemokine MCP1 in lungs, lower than vehicle” value [1]?
Answer: Its value is 39%.

Question: And the “cellularity by H&E staining” value [2]?
Answer: Its value is “higher cellularity in vehicle compared to TPOm treated mice”.

Question: What about the “protein leaked to bronchoalveolar lavage fluid, less than vehicle” value [3] of the same substance?
Answer: Its value is 28%.

Question: What about the “collagen deposition, lower than vehicle (Trichrome Blue staining)” value [4] of the same substance?
Answer: The value was 31%.

Question: And the “density in lungs by microCT, less than vehicle” value [5]?
Answer: Its value is 21%.

Question: And the “mRNA levels of senescence marker p21, lower than vehicle” value [6]?
Answer: The value was 52%.

Question: And the survival ([7]; vehicle 0%, p<0.01)?
Answer: The survival was 40%.

Question: And the mortality ([7]; vs vehicle)?
Answer: Its mortality is “significantly delayed in mortality”.

Question: What about the “protein expression of KC in the lung (ELISA)” value [8] of the same substance?
Answer: Its value is “significantly reduced in the TPOm (RWJ-800088) group to a level similar to naïve”.

Question: And the “alveolar neutrophil accumulation (MPO staining)” value [9]?
Answer: The value was “alveolar neutrophil accumulation in significantly greater numbers than mice treated with TPOm”.

— patent US20250312417A1, “Methods for Mitigating Lung Injury in Conjunction with Exposure to Radiation and/or Radiation or Radiomimetic Treatments” (Janssen Pharmaceutica NV, priority 2022, published 2025)
